Laboratory results reported in patent US20050282743A1, “Molecular interactions in cells” (Arbor Vita Corporation, priority 2001, published 2005).
One block for each compound: values may come before it. Peptide text beside a SMILES is read from it. * marks the point of attachment. Biotin = O=C1N[C@H]2[C@H](CS[C@H]2CCCCC(=O)*)N1

What was measured:
Assay in all cases: Apparent affinity (Kd) by titration of PL peptide in the G assay
Format in all cases: binding
[1] = target: T1, PDZ-domain polypeptide (GST/PDZ fusion protein) (Homo sapiens, UniProt P57105); settings: PDZ Outer Membrane, PDZ Domain 1; Protein Optimal Conc 5
T1 construct: made in house; host or cells: E. coli (DH5alpha, BL21 or JM109)
Outline: (§1)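 A fixed concentration of GST/PDZ fusion protein, 5 ug/ml by default, was mixed in solution with increasing labeled PL peptide (e.g. 0.1 uM-1 mM). Reaction times ranged from 10 minutes to 2 days at 4-37° C. Complexes were separated from free peptide and detected via the label as in the G assay, apparent affinity coming from the saturating concentration.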

[2] = target: T2, PDZ-domain polypeptide (GST/PDZ fusion protein) (Homo sapiens, UniProt Q969H4); settings: PDZ Connector Enhancer, PDZ Domain 1; Protein Optimal Conc 5
T2 construct: made in house; host or cells: E. coli (DH5alpha, BL21 or JM109)
Outline: as §1

[3] = target: T3, PDZ-domain polypeptide (GST/PDZ fusion protein) (Homo sapiens, UniProt Q9UDY2); settings: Peptide Optimal Conc (Kd by titration of the PL peptide), PDZ ZO-2, PDZ Domain 1
T3 construct: made in house; host or cells: E. coli (DH5alpha, BL21 or JM109)
Outline: as §1

[4] = target: T4, PDZ-domain polypeptide (GST/PDZ fusion protein) (Homo sapiens, UniProt Q9HD26); settings: Peptide Optimal Conc (Kd by titration of the PL peptide), PDZ PIST, PDZ Domain 1
T4 construct: made in house; host or cells: E. coli (DH5alpha, BL21 or JM109)
Outline: as §1

[5] = target: T5, PDZ-domain polypeptide (GST/PDZ fusion protein) (Homo sapiens, UniProt Q9P202); settings: PDZ KIAA1526, PDZ Domain 1; read-out: Peptide Optimal Conc (Kd by titration of the PL peptide)
T5 construct: made in house; host or cells: E. coli (DH5alpha, BL21 or JM109)
Outline: as §1

[6] = target: T6, PDZ-domain polypeptide (GST/PDZ fusion protein) (Homo sapiens, UniProt Q96RT1); settings: PDZ Erbin, PDZ Domain 1; read-out: Peptide Optimal Conc (Kd by titration of the PL peptide)
T6 construct: made in house; host or cells: E. coli (DH5alpha, BL21 or JM109)
Outline: as §1

[7] = target: T7, PDZ-domain polypeptide (GST/PDZ fusion protein) (Homo sapiens, UniProt Q14160); settings: PDZ KIAA0147, PDZ Domain 3; read-out: Peptide Optimal Conc (Kd by titration of the PL peptide)
T7 construct: made in house; host or cells: E. coli (DH5alpha, BL21 or JM109)
Outline: as §1

[8] = target: T8, PDZ-domain polypeptide (GST/PDZ fusion protein) (Homo sapiens, UniProt Q13796); settings: PDZ hAPXL, PDZ Domain 1; read-out: Peptide Optimal Conc (non-zero value: Kd by titration of the PL peptide)
T8 construct: made in house; host or cells: E. coli (DH5alpha, BL21 or JM109)
Outline: as §1

[9] = target: T9, PDZ-domain polypeptide (GST/PDZ fusion protein) (Homo sapiens, UniProt O00560); settings: PDZ hSyntenin, PDZ Domain 1; titration of the PL peptide; read-out: Peptide Optimal Conc (Kd, dissociation constant)
T9 construct: made in house; host or cells: E. coli (DH5alpha, BL21 or JM109)
Outline: as §1

[10] = target: T10, PDZ-domain polypeptide (GST/PDZ fusion protein) (Homo sapiens, UniProt O14907); settings: PDZ TIP1, PDZ Domain 1; titration of the PL peptide; read-out: Peptide Optimal Conc (Kd, dissociation constant)
T10 construct: made in house; host or cells: E. coli (DH5alpha, BL21 or JM109)
Outline: as §1

[11] = target: T11, PDZ-domain polypeptide (GST/PDZ fusion protein) (Homo sapiens, UniProt Q96HC4); settings: PDZ LIM Protein, PDZ Domain 1; titration of the PL peptide; read-out: Peptide Optimal Conc (Kd, dissociation constant)
T11 construct: made in house; host or cells: E. coli (DH5alpha, BL21 or JM109)
Outline: as §1

[12] = target: T12, PDZ-domain polypeptide (GST/PDZ fusion protein) (Homo sapiens, UniProt Q9C0E4); settings: Peptide Optimal Conc (Kd by titration of the PL peptide)
T12 construct: made in house; host or cells: E. coli (DH5alpha, BL21 or JM109)
Outline: as §1

[13] = target: T13, PDZ-domain polypeptide (GST/PDZ fusion protein) (Homo sapiens, UniProt Q9Y3R0); settings: Peptide Optimal Conc (Kd by titration of the PL peptide), PDZ GRIP1, PDZ Domain 6
T13 construct: made in house; host or cells: E. coli (DH5alpha, BL21 or JM109)
Outline: as §1

[14] = target: T14, PDZ-domain polypeptide (GST/PDZ fusion protein) (Homo sapiens, UniProt Q8NI35); settings: Peptide Optimal Conc (Kd by titration of the PL peptide), PDZ INADL, PDZ Domain 3
T14 construct: made in house; host or cells: E. coli (DH5alpha, BL21 or JM109)
Outline: as §1

[15] = target: T15, PDZ-domain polypeptide (GST/PDZ fusion protein) (Homo sapiens, UniProt Q07157); settings: Peptide Optimal Conc (Kd by titration of the PL peptide), PDZ ZO-1, PDZ Domain 2
T15 construct: made in house; host or cells: E. coli (DH5alpha, BL21 or JM109)
Outline: as §1

[16] = target: T16, PDZ-domain polypeptide (GST/PDZ fusion protein) (Homo sapiens, UniProt O15018); settings: Peptide Optimal Conc (Kd by titration of the PL peptide), PDZ AIPC, PDZ Domain 1
T16 construct: made in house; host or cells: E. coli (DH5alpha, BL21 or JM109)
Outline: as §1

T12 sequence (Q9C0E4 whole entry, the tested form may be a part): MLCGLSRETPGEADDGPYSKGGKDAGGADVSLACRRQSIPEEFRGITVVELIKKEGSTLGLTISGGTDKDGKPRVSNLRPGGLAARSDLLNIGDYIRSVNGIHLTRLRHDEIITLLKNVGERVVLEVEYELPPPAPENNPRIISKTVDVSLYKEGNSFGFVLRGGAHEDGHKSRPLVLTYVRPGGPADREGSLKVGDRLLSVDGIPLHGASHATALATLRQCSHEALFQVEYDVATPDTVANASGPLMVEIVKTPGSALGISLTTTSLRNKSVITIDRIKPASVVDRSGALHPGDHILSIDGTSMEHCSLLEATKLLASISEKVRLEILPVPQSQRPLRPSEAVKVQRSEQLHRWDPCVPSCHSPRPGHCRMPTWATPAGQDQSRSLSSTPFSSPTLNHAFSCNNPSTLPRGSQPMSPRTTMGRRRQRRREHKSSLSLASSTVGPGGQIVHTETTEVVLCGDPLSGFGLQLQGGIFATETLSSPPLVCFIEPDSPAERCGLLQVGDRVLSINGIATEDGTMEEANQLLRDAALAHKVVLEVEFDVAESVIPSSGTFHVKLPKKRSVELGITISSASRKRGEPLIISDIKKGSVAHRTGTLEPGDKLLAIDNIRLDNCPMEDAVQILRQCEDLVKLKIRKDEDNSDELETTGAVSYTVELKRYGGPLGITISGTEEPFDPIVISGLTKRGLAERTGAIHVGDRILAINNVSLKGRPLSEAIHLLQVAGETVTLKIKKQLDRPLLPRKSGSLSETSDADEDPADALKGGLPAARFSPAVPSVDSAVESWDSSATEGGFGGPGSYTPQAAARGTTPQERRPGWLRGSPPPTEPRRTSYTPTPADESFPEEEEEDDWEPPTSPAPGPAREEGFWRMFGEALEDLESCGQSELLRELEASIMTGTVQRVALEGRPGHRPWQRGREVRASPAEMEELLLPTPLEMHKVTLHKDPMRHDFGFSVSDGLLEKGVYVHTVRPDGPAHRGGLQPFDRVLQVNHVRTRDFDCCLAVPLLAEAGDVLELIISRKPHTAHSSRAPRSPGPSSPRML
T14 sequence (Q8NI35 whole entry, the tested form may be a part): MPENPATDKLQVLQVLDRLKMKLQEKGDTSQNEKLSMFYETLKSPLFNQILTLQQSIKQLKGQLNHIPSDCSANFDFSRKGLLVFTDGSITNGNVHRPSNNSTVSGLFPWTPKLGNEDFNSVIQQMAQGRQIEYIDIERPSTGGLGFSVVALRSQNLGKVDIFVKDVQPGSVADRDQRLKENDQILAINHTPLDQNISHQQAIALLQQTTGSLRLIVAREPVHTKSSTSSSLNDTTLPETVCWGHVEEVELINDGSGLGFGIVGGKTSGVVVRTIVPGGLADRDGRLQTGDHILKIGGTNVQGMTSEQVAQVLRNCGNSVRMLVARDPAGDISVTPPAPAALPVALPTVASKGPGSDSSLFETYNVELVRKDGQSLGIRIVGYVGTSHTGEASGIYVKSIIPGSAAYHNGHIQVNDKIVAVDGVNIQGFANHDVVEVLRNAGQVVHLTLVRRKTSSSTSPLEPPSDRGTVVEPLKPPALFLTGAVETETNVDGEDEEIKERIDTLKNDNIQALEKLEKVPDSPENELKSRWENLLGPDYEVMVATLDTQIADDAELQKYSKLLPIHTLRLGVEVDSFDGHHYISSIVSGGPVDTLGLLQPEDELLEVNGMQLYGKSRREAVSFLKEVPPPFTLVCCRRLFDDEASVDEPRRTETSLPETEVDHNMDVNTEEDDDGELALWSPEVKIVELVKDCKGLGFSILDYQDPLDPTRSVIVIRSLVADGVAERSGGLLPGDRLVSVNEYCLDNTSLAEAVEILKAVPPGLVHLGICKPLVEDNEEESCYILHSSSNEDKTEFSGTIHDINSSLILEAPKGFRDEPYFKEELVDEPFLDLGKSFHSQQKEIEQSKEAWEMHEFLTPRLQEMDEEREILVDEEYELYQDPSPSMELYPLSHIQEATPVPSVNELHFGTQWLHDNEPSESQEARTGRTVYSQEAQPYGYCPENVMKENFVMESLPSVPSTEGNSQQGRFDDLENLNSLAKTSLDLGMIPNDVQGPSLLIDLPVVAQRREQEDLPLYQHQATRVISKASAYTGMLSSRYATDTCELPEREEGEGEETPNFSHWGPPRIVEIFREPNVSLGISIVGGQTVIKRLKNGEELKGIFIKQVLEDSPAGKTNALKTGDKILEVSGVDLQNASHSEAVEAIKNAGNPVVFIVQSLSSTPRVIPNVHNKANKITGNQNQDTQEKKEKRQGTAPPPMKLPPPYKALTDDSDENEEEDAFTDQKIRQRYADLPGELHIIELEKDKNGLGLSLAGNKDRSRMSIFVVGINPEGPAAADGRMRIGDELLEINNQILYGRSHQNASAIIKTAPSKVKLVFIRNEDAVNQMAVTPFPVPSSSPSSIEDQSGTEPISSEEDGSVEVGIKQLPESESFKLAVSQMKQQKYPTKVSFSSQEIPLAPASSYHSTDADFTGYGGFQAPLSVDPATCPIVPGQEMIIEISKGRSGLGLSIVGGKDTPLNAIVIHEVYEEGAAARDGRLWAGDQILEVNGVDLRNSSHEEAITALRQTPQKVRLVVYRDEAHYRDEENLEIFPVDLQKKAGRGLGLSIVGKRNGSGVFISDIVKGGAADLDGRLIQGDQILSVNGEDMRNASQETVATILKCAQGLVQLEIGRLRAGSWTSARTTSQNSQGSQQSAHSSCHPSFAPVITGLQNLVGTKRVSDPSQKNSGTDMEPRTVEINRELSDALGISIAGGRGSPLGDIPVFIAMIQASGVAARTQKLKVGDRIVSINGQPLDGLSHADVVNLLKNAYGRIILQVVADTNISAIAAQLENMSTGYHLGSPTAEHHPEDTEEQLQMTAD
T6 sequence (Q96RT1 whole entry, the tested form may be a part): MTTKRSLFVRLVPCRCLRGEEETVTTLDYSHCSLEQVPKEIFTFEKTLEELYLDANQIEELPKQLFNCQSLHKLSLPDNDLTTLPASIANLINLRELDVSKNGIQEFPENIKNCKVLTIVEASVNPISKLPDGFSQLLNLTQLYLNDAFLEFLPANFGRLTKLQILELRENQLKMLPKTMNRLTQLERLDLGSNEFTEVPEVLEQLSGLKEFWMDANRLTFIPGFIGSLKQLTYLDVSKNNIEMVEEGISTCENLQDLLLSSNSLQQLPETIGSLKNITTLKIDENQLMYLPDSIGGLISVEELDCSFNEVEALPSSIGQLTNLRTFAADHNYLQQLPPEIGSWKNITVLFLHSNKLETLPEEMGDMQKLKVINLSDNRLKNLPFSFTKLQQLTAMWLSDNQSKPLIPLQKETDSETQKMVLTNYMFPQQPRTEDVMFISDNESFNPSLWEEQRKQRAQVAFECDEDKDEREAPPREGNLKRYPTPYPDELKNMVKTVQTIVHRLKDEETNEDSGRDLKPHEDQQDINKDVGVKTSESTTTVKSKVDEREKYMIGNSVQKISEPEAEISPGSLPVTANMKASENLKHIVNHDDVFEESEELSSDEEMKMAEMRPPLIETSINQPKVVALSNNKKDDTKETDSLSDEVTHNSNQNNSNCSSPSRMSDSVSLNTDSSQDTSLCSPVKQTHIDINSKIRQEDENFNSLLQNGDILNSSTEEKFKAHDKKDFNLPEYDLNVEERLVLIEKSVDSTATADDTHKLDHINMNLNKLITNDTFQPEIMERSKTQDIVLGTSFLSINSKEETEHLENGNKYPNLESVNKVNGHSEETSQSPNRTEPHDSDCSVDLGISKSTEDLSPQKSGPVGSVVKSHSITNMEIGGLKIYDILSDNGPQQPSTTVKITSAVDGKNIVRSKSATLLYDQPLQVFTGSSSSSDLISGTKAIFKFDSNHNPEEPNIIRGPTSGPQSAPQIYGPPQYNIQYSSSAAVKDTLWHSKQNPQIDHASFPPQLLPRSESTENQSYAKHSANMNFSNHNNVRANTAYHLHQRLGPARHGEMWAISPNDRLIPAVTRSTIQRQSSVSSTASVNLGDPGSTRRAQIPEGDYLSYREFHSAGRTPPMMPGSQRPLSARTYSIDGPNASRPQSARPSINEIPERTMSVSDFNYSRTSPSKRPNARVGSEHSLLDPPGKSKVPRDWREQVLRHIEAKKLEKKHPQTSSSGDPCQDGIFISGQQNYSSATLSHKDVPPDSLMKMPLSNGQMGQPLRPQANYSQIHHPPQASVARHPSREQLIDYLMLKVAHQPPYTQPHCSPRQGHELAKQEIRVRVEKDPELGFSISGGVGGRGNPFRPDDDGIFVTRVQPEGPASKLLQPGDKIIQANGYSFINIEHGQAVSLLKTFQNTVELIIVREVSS
T2 sequence (Q969H4 whole entry, the tested form may be a part): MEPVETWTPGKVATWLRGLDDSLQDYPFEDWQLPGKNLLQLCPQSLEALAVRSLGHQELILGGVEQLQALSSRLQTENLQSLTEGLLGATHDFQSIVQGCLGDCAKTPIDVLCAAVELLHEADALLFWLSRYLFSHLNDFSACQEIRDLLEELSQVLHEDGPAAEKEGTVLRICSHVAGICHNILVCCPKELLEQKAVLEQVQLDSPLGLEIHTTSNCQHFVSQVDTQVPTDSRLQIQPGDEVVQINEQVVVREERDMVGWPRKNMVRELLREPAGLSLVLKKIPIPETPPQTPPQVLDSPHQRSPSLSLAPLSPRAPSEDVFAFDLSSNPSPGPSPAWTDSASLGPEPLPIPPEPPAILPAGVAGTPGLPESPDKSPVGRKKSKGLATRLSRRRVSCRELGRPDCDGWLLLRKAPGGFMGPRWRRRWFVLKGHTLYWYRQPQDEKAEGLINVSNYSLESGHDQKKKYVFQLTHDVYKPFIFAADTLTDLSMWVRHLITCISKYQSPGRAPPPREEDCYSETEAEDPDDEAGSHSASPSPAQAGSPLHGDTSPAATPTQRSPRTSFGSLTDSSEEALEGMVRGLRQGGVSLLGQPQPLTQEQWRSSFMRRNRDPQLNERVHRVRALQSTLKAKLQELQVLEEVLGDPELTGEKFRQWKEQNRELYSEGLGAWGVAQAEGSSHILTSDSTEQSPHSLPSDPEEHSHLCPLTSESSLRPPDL
T1 sequence (P57105 whole entry, the tested form may be a part): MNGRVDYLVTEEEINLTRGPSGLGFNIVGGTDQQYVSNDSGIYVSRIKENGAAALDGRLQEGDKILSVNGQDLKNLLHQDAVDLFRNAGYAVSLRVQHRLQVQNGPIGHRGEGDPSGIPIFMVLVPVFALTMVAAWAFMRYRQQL

Compound: CC[C@H](C)[C@H](NC(=O)[C@H](CCCCN)NC(=O)[C@@H](NC(=O)[C@H](CO)NC(=O)[C@@H]1CCCN1C(=O)[C@H](Cc1ccccc1)NC(=O)[C@@H](NC(=O)[C@@H](NC(=O)[C@H](CCCNC(=N)N)NC(=O)[C@H](CCC(=O)O)NC(=O)[C@H](CC(C)C)NC(=O)[C@H](CC(C)C)NC(=O)[C@H](CC(C)C)NC(=O)[C@@H](NC(=O)CNC(=O)[C@@H](NC(=O)CCCC[C@@H]1SC[C@@H]2NC(=O)N[C@@H]21)C(C)C)[C@@H](C)O)C(C)C)[C@@H](C)CC)C(C)C)C(=O)N[C@@H](C)C(=O)N[C@H](C(=O)N[C@@H](CC(C)C)C(=O)N[C@H](C(=O)O)C(C)C)[C@@H](C)O [Adenovirus E4 Type9]
Kd [1]: 100 nM
Kd [2]: 100 nM

Compound: CC[C@H](C)[C@H](NC(=O)[C@H](CC(=O)O)NC(=O)[C@H](CCC(=O)O)NC(=O)[C@H](CCCNC(=N)N)NC(=O)[C@@H](NC(=O)CCCC[C@@H]1SC[C@@H]2NC(=O)N[C@@H]21)[C@@H](C)O)C(=O)N[C@@H](Cc1ccc(O)cc1)C(=O)N[C@H](C(=O)N[C@@H](CC(N)=O)C(=O)N[C@@H](Cc1ccc(O)cc1)C(=O)N1CCC[C@H]1C(=O)N[C@H](C(=O)N[C@@H](Cc1ccccc1)C(=O)N[C@@H](CO)C(=O)N[C@@H](CCCNC(=N)N)C(=O)N[C@@H](CCCNC(=N)N)C(=O)N1CCC[C@H]1C(=O)N[C@@H](CCCCN)C(=O)N[C@H](C(=O)N[C@@H](CCCNC(=N)N)C(=O)N[C@H](C(=O)O)C(C)C)[C@@H](C)O)[C@@H](C)O)C(C)C [DNAM-1] (Biotin-TREDIYVNYPTFSRRPKTRV-OH; C-terminus assumed)
Kd [3]: 3000 nM
Kd [4]: 2500 nM

Compound: CSCC[C@H](NC(=O)[C@H](C)NC(=O)[C@H](CCCNC(=N)N)NC(=O)CNC(=O)[C@@H](NC(=O)[C@H](Cc1c[nH]c2ccccc12)NC(=O)[C@H](CCCNC(=N)N)NC(=O)CNC(=O)CCCC[C@@H]1SC[C@@H]2NC(=O)N[C@@H]21)[C@@H](C)O)C(=O)N[C@@H](CO)C(=O)N[C@@H](C)C(=O)N[C@@H](Cc1c[nH]c2ccccc12)C(=O)N[C@@H](CCCCN)C(=O)N1CCC[C@H]1C(=O)N[C@H](C(=O)N[C@@H](CCCNC(=N)N)C(=O)N[C@@H](CCCNC(=N)N)C(=O)N[C@@H](CCC(=O)O)C(=O)N[C@H](C(=O)N[C@@H](CCC(=O)O)C(=O)N[C@H](C(=O)O)C(C)C)[C@@H](C)O)[C@@H](C)O [HPV E6 #35 (modified)] (Biotin-GRWTGRAMSAWKPTRRETEV-OH; C-terminus assumed)
Kd [5]: 1000 nM
Kd [6]: 400 nM
Kd [7]: 350 nM

Kd [8]: 600 nM
Compound: CC[C@H](C)[C@H](NC(=O)CNC(=O)[C@H](CO)NC(=O)[C@H](Cc1ccccc1)NC(=O)[C@@H](NC(=O)[C@H](CS)NC(=O)CNC(=O)CNC(=O)[C@H](C)NC(=O)[C@@H]1CCCN1C(=O)[C@@H](NC(=O)[C@@H]1CCCN1C(=O)CCCC[C@@H]1SC[C@@H]2NC(=O)N[C@@H]21)[C@@H](C)CC)[C@@H](C)O)C(=O)N[C@@H](Cc1ccccc1)C(=O)N1CCC[C@H]1C(=O)N[C@H](C(=O)N[C@@H](CC(C)C)C(=O)N[C@H](C(=O)N[C@@H](CO)C(=O)N1CCC[C@H]1C(=O)N[C@@H](CC(C)C)C(=O)O)[C@@H](C)O)[C@@H](C)O [KIA 1481] (Biotin-PIPAGGCTFSGIFPTLTSPL-OH; C-terminus assumed)

Kd [9]: 800 nM
Compound: CC[C@H](C)[C@H](NC(=O)[C@H](Cc1ccc(O)cc1)NC(=O)[C@@H](NC(=O)[C@@H]1CCCN1C(=O)[C@H](CCC(N)=O)NC(=O)[C@H](CCC(=O)O)NC(=O)[C@H](CCC(N)=O)NC(=O)[C@H](C)NC(=O)[C@@H](NC(=O)[C@H](CC(C)C)NC(=O)[C@H](CC(C)C)NC(=O)[C@H](CCCNC(=N)N)NC(=O)[C@H](Cc1ccc(O)cc1)NC(=O)[C@H](CCSC)NC(=O)[C@H](C)NC(=O)[C@H](C)NC(=O)[C@@H]1CCCN1C(=O)[C@H](CCSC)NC(=O)[C@@H](NC(=O)[C@H](CCCCN)NC(=O)CCCC[C@@H]1SC[C@@H]2NC(=O)N[C@@H]21)[C@@H](C)O)[C@@H](C)O)C(C)C)C(=O)O [MINT-1] (Biotin-KTMPAAMYRLLTAQEQPVYI-OH; C-terminus assumed)

Kd [10]: 1000 nM
Kd [11]: 2000 nM
Compound: CC(C)C[C@H](NC(=O)[C@H](CC(=O)O)NC(=O)[C@H](CO)NC(=O)[C@H](CCC(=O)O)NC(=O)CNC(=O)[C@H](Cc1ccc(O)cc1)NC(=O)[C@H](CC(C)C)NC(=O)[C@H](C)NC(=O)[C@H](CO)NC(=O)[C@H](CO)NC(=O)[C@H](Cc1ccccc1)NC(=O)[C@H](C)NC(=O)[C@H](C)NC(=O)[C@H](Cc1ccc(O)cc1)NC(=O)[C@H](CC(=O)O)NC(=O)[C@H](CC(C)C)NC(=O)[C@H](C)NC(=O)CNC(=O)[C@@H]1CCCN1C(=O)[C@@H](NC(=O)CCCC[C@@H]1SC[C@@H]2NC(=O)N[C@@H]21)C(C)C)C(=O)O [a-actinin 2] (Biotin-VPGALDYAAFSSALYGESDL-OH; C-terminus assumed)

Compound: CC[C@H](C)[C@H](NC(=O)[C@H](C)NC(=O)[C@H](CC(C)C)NC(=O)[C@H](Cc1c[nH]c2ccccc12)NC(=O)[C@H](Cc1c[nH]cn1)NC(=O)[C@H](CCC(N)=O)NC(=O)[C@H](CC(C)C)NC(=O)[C@H](CCC(N)=O)NC(=O)[C@H](Cc1ccccc1)NC(=O)[C@H](CCC(N)=O)NC(=O)[C@H](CCCNC(=N)N)NC(=O)[C@@H](NC(=O)[C@H](CC(=O)O)NC(=O)[C@H](CCCNC(=N)N)NC(=O)[C@H](CCC(N)=O)NC(=O)[C@H](C)NC(=O)[C@@H](NC(=O)[C@H](CC(C)C)NC(=O)[C@H](Cc1c[nH]cn1)NC(=O)[C@H](Cc1c[nH]cn1)NC(=O)CCCC[C@@H]1SC[C@@H]2NC(=O)N[C@@H]21)C(C)C)[C@@H](C)CC)C(=O)O [noradrenaline transporter] (Biotin-HHLVAQRDIRQFQLQHWLAI-OH; C-terminus assumed)
Kd ([12]; PDZ KIAA1719, PDZ Domain 5): 1000 nM
Kd ([12]; PDZ KIAA1719, PDZ Domain 6): 800 nM
Kd [13]: 500 nM
Kd [14]: 600 nM
Kd [15]: 400 nM
Kd [16]: 600 nM
